Assay results as given in ChEMBL document CHEMBL5291721, “A preclinical secondary pharmacology resource illuminates target-adverse drug reaction associations of marketed drugs” (Nat Commun, 2023).

Tests used:
[1] = biological target: Gamma-aminobutyric acid receptor subunit alpha-1/alpha-2/beta-2/gamma-2 (Homo sapiens, UniProt P14867+P18507+P47869+P47870); assay type: functional, cell-based
Histamine H1 receptor = Histamine H1 receptor (Homo sapiens, UniProt P35367)
[2] = biological target: T1, 5-hydroxytryptamine receptor 3A (Homo sapiens, UniProt P46098); assay type: functional
T1 sequence (P46098 whole entry): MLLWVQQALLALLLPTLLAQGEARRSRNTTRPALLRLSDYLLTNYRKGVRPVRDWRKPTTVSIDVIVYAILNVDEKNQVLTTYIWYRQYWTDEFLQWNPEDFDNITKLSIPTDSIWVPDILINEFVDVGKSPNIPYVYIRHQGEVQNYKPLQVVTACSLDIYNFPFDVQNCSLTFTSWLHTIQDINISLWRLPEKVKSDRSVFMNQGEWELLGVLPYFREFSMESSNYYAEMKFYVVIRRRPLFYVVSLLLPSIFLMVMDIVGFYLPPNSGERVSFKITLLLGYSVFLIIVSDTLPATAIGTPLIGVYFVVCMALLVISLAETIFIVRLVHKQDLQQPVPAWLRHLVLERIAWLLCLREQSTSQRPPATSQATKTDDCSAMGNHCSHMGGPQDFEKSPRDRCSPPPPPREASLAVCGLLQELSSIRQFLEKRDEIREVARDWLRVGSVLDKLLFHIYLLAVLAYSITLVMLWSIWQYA

D(3) dopamine receptor = D(3) dopamine receptor (Homo sapiens, UniProt P35462)
Sequence of D(3) dopamine receptor (P35462 whole entry): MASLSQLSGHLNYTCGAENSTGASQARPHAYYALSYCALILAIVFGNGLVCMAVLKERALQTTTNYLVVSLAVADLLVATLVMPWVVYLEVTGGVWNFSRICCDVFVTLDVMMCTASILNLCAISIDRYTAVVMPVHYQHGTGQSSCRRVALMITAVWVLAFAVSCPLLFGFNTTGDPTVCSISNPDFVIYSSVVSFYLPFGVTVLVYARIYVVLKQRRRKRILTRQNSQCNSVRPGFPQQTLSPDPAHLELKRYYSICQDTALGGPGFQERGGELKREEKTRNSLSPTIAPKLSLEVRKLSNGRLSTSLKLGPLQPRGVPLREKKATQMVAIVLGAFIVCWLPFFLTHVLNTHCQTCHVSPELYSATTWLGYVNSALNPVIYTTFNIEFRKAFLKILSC

[3] = biological target: T2, Gastrin/cholecystokinin type B receptor (Homo sapiens, UniProt P32239)
T2 sequence (P32239 whole entry): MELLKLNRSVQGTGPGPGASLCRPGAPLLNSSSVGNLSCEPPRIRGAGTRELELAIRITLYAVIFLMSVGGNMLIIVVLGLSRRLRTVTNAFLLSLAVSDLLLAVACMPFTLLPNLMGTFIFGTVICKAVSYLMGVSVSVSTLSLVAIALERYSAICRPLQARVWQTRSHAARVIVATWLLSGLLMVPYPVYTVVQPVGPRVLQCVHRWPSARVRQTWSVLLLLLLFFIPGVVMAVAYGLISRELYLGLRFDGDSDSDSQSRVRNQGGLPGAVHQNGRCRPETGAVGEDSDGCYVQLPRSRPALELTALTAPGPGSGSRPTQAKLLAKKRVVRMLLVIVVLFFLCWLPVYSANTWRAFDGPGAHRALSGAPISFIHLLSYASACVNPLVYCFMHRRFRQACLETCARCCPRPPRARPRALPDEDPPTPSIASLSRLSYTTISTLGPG

B2 bradykinin receptor = biological target: T3, B2 bradykinin receptor (Homo sapiens, UniProt P30411)
T3 sequence (P30411 whole entry): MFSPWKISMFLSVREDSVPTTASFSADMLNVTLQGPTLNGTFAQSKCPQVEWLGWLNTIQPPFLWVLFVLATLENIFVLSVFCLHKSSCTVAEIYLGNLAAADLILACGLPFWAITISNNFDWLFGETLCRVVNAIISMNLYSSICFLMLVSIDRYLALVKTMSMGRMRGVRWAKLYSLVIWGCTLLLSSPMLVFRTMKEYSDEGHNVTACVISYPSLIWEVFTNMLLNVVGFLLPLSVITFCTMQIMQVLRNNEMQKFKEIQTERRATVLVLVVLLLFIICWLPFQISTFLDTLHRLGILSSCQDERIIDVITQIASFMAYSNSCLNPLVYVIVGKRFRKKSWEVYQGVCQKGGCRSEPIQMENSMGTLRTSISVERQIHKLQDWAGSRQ

[4] = biological target: T4, Alpha-2A adrenergic receptor (Homo sapiens, UniProt P08913); assay type: functional, cell-based
T4 sequence (P08913 whole entry): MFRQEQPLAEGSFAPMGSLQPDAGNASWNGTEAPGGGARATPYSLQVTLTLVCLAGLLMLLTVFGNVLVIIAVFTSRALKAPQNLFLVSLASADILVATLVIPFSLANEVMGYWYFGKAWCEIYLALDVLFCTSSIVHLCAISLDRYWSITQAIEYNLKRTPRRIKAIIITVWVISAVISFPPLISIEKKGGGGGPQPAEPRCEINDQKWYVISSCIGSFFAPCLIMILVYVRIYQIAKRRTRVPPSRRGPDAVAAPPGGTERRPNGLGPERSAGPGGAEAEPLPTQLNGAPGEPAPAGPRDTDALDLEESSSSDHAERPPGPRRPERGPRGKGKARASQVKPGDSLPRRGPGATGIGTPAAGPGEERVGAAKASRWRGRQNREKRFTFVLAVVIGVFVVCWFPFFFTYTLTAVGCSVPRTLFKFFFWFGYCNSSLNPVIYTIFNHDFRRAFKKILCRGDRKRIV

Substance-P receptor = Substance-P receptor (Homo sapiens, UniProt P25103)
Sequence of Substance-P receptor (P25103 whole entry): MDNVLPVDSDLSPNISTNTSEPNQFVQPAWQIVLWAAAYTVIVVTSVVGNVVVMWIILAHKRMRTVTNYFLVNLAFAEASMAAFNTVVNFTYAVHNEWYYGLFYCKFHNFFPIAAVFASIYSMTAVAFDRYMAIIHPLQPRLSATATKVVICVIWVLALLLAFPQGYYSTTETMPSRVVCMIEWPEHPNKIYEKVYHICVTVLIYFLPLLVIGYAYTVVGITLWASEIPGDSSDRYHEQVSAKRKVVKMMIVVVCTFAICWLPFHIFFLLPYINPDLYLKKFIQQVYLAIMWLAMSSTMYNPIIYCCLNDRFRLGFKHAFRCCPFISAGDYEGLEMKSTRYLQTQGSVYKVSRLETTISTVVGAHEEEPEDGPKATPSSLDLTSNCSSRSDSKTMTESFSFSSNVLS

Progesterone receptor = biological target: T5, Progesterone receptor (Homo sapiens, UniProt P06401)
T5 sequence (P06401 whole entry): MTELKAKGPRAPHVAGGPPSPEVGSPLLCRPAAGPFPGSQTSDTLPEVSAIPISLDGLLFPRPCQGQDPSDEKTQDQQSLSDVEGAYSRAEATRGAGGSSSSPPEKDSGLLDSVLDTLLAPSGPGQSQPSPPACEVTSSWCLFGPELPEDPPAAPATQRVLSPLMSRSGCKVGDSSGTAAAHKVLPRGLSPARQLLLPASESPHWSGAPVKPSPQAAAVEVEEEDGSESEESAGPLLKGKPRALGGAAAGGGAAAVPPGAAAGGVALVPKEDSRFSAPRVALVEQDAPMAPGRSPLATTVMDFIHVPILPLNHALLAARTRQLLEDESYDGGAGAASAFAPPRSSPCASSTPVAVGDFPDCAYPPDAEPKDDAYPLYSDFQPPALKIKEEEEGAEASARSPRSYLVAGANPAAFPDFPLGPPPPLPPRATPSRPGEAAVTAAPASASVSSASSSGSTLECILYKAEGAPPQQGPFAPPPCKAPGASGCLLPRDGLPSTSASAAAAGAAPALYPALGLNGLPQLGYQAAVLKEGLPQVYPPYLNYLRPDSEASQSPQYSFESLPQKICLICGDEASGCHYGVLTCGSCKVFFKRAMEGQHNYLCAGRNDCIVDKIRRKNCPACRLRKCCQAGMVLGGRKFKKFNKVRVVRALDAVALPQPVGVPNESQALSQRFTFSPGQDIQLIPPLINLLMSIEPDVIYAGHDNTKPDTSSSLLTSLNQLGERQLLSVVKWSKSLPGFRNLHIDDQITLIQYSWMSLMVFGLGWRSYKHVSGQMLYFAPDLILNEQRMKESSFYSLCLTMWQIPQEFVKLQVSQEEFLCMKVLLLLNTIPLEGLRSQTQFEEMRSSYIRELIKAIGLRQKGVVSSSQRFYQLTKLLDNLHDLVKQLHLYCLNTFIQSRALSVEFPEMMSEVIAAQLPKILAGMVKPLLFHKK
Note: assay procedure not described here.

Sequence of Gamma-aminobutyric acid receptor subunit alpha-1/alpha-2/beta-2/gamma-2 (P14867 whole entry): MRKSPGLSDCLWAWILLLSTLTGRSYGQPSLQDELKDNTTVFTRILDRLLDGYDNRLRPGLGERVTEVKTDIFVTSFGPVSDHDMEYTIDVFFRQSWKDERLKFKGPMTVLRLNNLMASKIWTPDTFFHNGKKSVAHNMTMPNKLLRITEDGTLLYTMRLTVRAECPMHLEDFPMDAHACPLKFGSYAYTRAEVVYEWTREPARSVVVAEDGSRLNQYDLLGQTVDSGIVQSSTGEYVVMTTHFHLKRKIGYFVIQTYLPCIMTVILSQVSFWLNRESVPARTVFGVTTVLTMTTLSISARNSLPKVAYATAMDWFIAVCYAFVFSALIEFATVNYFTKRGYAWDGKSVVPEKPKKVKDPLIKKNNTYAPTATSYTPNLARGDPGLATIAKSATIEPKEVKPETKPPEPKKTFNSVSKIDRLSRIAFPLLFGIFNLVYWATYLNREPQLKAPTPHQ
Sequence of Gamma-aminobutyric acid receptor subunit alpha-1/alpha-2/beta-2/gamma-2 (P47870 whole entry): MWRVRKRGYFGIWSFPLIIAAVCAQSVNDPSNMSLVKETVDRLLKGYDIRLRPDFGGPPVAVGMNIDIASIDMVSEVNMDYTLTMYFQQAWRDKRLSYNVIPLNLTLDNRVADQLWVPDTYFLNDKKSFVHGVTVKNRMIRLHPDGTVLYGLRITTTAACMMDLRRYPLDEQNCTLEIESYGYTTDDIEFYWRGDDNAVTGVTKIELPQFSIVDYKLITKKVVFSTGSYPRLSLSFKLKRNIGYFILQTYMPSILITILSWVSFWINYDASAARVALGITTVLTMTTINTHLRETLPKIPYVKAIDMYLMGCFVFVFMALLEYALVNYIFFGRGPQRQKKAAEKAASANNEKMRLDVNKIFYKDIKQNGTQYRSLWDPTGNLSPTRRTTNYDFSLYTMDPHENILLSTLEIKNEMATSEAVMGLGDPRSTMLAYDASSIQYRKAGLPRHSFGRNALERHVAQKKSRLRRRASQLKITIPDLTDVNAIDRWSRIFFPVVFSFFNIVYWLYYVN
Sequence of Gamma-aminobutyric acid receptor subunit alpha-1/alpha-2/beta-2/gamma-2 (P18507 whole entry): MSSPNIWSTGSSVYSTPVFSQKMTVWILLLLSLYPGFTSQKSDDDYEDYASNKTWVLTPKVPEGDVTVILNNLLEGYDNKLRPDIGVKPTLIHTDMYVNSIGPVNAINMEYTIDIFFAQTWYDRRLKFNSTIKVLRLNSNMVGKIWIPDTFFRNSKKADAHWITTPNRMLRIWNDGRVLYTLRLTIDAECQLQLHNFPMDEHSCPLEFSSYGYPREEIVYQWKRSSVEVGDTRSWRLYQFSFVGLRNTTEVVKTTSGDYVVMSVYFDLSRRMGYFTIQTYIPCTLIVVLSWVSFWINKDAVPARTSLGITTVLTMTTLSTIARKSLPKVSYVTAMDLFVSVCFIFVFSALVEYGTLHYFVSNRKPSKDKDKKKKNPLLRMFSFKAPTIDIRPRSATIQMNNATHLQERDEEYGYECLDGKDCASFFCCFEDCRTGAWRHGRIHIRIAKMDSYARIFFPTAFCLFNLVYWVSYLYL
Sequence of Gamma-aminobutyric acid receptor subunit alpha-1/alpha-2/beta-2/gamma-2 (P47869 whole entry): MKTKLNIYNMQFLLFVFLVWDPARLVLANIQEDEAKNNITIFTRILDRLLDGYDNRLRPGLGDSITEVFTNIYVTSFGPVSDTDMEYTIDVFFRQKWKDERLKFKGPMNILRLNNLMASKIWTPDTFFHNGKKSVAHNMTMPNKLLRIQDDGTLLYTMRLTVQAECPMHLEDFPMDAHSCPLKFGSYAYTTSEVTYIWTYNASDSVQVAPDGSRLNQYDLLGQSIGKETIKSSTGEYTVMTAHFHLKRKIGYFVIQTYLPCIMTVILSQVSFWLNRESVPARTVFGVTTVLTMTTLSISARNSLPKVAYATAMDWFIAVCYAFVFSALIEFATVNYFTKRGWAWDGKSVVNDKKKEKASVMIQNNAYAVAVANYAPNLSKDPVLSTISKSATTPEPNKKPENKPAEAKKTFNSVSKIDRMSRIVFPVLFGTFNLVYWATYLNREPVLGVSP
Sequence of Histamine H1 receptor (P35367 whole entry): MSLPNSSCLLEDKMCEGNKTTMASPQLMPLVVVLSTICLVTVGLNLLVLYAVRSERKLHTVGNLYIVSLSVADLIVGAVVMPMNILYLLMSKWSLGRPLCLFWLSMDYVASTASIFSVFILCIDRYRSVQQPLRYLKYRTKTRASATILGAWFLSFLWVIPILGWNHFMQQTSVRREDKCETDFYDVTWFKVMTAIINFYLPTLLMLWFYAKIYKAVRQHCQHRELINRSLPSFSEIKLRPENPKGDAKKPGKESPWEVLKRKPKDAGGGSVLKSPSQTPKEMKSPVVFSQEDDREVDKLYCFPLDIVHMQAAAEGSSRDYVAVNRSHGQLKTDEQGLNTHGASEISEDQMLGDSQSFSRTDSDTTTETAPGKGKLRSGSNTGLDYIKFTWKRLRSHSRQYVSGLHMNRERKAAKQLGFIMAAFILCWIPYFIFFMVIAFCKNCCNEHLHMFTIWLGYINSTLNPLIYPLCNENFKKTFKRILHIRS

SMILES	AC50 [1] [µM]	AC50 (Histamine H1 receptor) [µM]	AC50 [2] [µM]	AC50 (D(3) dopamine receptor) [µM]	AC50 [3] [µM]	AC50 (B2 bradykinin receptor) [µM]	AC50 [4] [µM]	AC50 (Substance-P receptor) [µM]	AC50 (Progesterone receptor) [µM]
NC1CCN(c2c(F)cc3c(=O)c(C(=O)O)cn(C4CC4)c3c2Cl)C1 (centres undefined) [CLINAFLOXACIN]	> 300								
CN(C)CC/C=C1\c2ccccc2CSc2ccccc21 [DOTHIEPIN]		0.019	> 30	3	> 30	> 30	29		
CN1CCN(C2=Nc3ccccc3Sc3ccc(Cl)cc32)CC1 [CLOTHIAPINE]	> 30	0.02	9	0.35			> 30		
COc1cc2nc(N3CCN(C(=O)c4ccco4)CC3)nc(N)c2cc1OC [PRAZOSIN]			> 10	> 30	> 30	> 30		> 10	> 30
C=CCN1C[C@H](C(=O)N(CCCN(C)C)C(=O)NCC)C[C@@H]2c3cccc4[nH]cc(c34)C[C@H]21 [CABERGOLINE]	> 30	6.8	> 30	0.0076		> 10			
CCCC1O[C@@H]2C[C@H]3[C@@H]4CCC5=CC(=O)C=C[C@]5(C)[C@H]4[C@@H](O)C[C@]3(C)[C@]2(C(=O)CO)O1 (some centres undefined) [BUDESONIDE]			> 30	> 30		> 10	> 10		
O=[N+]([O-])O[C@@H]1CO[C@H]2[C@@H]1OC[C@@H]2O [ISOSORBIDE MONONITRATE]		> 10	> 30	> 10	> 30	> 30	> 10	> 10	> 30
COc1ccccc1N1CCN(CC(O)COc2cccc3ccccc23)CC1 (centres undefined) [NAFTOPIDIL]		0.75	> 30	0.42			3.7		
COC1=C(OC)C(=O)C(C/C=C(\C)CC/C=C(\C)CC/C=C(\C)CC/C=C(\C)CC/C=C(\C)CC/C=C(\C)CC/C=C(\C)CC/C=C(\C)CC/C=C(\C)CCC=C(C)C)=C(C)C1=O [UBIDECARENONE]	> 30	> 30	> 30	> 30			> 30		
Cc1cc(C)c(NC(=O)CN(CC(=O)O)CC(=O)O)c(C)c1Br [MEBROFENIN]	> 30	> 30	> 30	22			> 30		
CC[C@H]1CN2CCc3cc(OC)c(OC)cc3[C@@H]2C[C@@H]1C[C@H]1NCCc2cc(OC)c(OC)cc21 [EMETINE]	> 30		> 30		> 30	> 30	1.2		
